Reference: patent publication US20090186915A1, “Compositions and methods for treatment of glioblastoma, gliosarcoma, NSCLC, and head and neck cancer” (Unibioscreen S. A., priority 2006, published 2009)

Legend:
Hs683 or U373 cells = assay: Apoptosis by Annexin V-FITC flow cytometry, glioma cells; assay type: cell-based, human; conditions: 10 μM for 72 h
Experimental: UNBS5162-induced apoptotic effects as evaluated by flow cytometry with Annexin V-FITC staining of Hs683 or U373 cells either left untreated (0 μM) or treated with 1 and 10 μM UNBS5162 for 72 h, either as a single treatment (gray bars) or as repeated (“chronic”; black bars) treatment (i.e. 1 μM or 10 μM each day for five days, “5×1”). The data are presented as means+SEM. “*” means that all GBM cells died before the end of the experiment.

OE21 xenograft = assay: s.c. metastatic OE21 xenograft nude mice model; assay type: in vivo; conditions: UNBS5162 10 mg/kg i.v. with cisplatin 5 mg/kg i.p.
Experimental: To enable the achievement of pertinent in vivo studies, a highly metastatic s.c. model was developed by grafting OE21 cells subcutaneously into nude mice. […] In line with this, an experiment combining cisplatin to UNBS5162 was performed.
The treatment protocol included following conditions: • UNBS5162: N-{2-[2-(dimethylamino)ethyl]-1,3-dioxo-2,3-dihydro-1H-benzo[de]isoquinolin-5-yl}urea
Dose (mg/kg): 10 mg/kg (1.35 eq lactic acid) Dose volume: 200 μL/mouse Schedule: 3 injection(s) per week; 5 weeks (3i×5w)
Dose (mg/kg): 5 mg/kg (saline) Dose volume: 200 μL/mouse Schedule: 1 injection per week; 5 weeks (1×5)
Cisplatine (1×5)×5 mg/kg i.p.=>group 1 UNBS5162 (3×5)×10 mg/kg i.v.=>group 3 Cisplatine (1×3)×5 mg/kg i.p.=>1 w without treatment=>UNBS5162 (3×5)× […] i.v.=>group 4

CN(C)CCN1C(=O)c2cccc3cc(NC(N)=O)cc(c23)C1=O [UNBS5162, N-{2-[2-(dimethylamino)ethyl]-1,3-dioxo-2,3-dihydro-1H-benzo[de]isoquinolin-5-yl}urea]
apoptotic events (Annexin V-FITC) (Hs683 or U373 cells): induces moderate apoptotic events | anti-tumor effect in combination with cisplatin (tumor size) (OE21 xenograft): enhanced the activity of cisplatin
